In patent US20100179158A1, “INHIBITORS OF CYCLIC AMP PHOSPHODIESTERASES” (priority 2007, published 2010):

How the values were obtained:
PDE7A = target: T1, PDE7A (Homo sapiens, UniProt Q13946); experiment: Fission yeast 5FOA growth assay, strain expressing PDE7A; type: cell-based; conditions: 5FOA growth screen; for 2 Assay (2 uM), PDE 7A: 2 uM compound; for 1 Assay (20 uM), PDE 7A: 20 uM compound
T1 construct: targets used in the assays are full-length proteins (as opposed to simply the catalytic domain); expressed in transfected cells; host or cells: Schizosaccharomyces pombe, gene integrated at the cgs2 locus
T1 sequence (Q13946 whole entry, the tested form may be a part): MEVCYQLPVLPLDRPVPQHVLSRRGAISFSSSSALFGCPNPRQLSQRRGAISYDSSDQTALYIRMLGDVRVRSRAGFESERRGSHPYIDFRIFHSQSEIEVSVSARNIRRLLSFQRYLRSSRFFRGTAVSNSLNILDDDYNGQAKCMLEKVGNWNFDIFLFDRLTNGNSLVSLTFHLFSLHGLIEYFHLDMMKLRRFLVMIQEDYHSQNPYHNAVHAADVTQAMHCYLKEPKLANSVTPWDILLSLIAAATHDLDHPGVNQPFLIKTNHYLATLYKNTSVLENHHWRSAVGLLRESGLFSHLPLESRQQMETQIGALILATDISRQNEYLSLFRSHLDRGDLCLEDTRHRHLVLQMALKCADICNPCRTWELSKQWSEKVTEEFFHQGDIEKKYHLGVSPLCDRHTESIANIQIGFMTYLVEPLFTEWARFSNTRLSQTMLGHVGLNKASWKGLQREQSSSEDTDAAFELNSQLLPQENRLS
Description: (§1) Cells were pregrown in EMM medium [MP Biomedicals (Solon, OH), 3% glucose, filter-sterilized to avoid carmelization, which would introduce variability into the optical density of the medium] containing from 0 mM to 2.5 mM cAMP (or either 0.5 mM or 1.0 mM cGMP). This was to repress expression of the fbp1-ura4 reporter prior to exposure of cells to 5FOA medium. Cells were grown at 30° C. to exponential phase (approximately 10^7 cells/ml). Cells were collected by centrifugation and resuspended in 5FOA medium, and 25 μl were transferred to 384-well microtiter dishes (untreated, with flat clear bottoms) that had been pre-filled with 25 μl 5FOA medium and pre-pinned with 100 nl of compounds (stock solutions were generally 10 mM). Starting cell concentrations ranged from 0.5×10^5 to 4×10^5 cells/ml depending on the screening strain. […] Other positive control dishes contained 5 mM cAMP in the 5FOA medium for PDEs that lack appropriate control compounds. Cultures were grown for 48 hours at 30° C., sealed in an airtight container with moist paper towels to prevent evaporation. Optical densities (OD600) of cultures were measured using a microplate reader. Bioinformatic analysis of the results to determine composite Z scores was performed as previously described (1, 3).

PDE4A5 = target: T2, PDE4A5 (Rattus norvegicus, UniProt P54748); experiment: Fission yeast 5FOA growth assay, strain expressing PDE4A5; type: cell-based; conditions: 5FOA growth screen; for 2 Assay (2 uM), PDE 4A5: 2 uM compound; for 1 Assay (20 uM), PDE 4A5: 20 uM compound
T2 construct: targets used in the assays are full-length proteins (as opposed to simply the catalytic domain); expressed in transfected cells; host or cells: Schizosaccharomyces pombe, gene integrated at the cgs2 locus
T2 sequence (P54748 1-844): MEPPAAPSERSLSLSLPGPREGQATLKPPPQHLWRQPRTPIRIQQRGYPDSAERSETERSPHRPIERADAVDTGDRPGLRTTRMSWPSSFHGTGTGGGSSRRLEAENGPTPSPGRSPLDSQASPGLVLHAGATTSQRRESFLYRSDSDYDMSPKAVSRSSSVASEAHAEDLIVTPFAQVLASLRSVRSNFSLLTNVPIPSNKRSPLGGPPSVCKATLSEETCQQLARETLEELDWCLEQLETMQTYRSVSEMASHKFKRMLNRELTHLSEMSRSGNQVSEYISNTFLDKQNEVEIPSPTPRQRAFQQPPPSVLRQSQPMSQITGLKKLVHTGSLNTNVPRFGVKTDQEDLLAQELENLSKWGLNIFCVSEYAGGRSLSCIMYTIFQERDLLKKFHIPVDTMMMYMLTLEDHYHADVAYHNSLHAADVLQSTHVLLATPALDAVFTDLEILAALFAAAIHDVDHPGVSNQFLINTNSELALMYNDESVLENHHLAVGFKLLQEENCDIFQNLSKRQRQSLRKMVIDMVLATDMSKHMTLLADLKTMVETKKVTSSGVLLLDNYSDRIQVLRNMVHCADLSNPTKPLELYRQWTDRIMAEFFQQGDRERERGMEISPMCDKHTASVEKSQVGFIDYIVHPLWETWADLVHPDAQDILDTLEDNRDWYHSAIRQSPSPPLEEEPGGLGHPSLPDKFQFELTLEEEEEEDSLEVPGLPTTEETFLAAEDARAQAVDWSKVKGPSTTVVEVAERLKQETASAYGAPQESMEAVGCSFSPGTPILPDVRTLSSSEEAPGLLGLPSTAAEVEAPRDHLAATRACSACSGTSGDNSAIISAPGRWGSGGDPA
Description: High throughput drug screens were carried out at the Broad Institute's Chemical Biology Program screening facility (Broad Institute, Cambridge, Mass.). Depending upon the strain, cultures were pregrown to exponential phase in EMM complete medium containing from 0.5 to 2.5 mM cAMP to repress fbp1-ura4 transcription. Cells were collected by centrifugation, resuspended in 5FOA medium, and 25 μl were transferred to 384-well microtiter dishes (untreated, with flat clear bottoms) that had been pre-filled with 25 μl 5FOA medium and pre-pinned with 100 nl of compounds (stock solutions were generally 10 mM) from a subset of the Prestwick Bioactive and the Microsource Spectrum compound libraries. Starting cell concentrations ranged from 0.5×10^5 to 4×10^5 cells/ml depending on the screening strain. […] Other positive control dishes contained 5 mM cAMP in the 5FOA medium. Cultures were grown for 48 hours at 30° C., sealed in an airtight container with moist paper towels to prevent evaporation. Optical densities (OD600) of cultures were measured using a microplate reader. Bioinformatic analysis of the results to determine composite Z scores was performed as previously described^30, 31.
as §1

PDE4D3 = target: T3, PDE4D3 (Homo sapiens, UniProt Q08499); experiment: IC50 on PDE4D3; type: biochemical; conditions: read-out: IC50, PDE 4D3
T3 construct: targets used in the assays are full-length proteins (as opposed to simply the catalytic domain); expressed in transfected cells; host or cells: Schizosaccharomyces pombe, gene integrated at the cgs2 locus
T3 sequence (Q08499 1-673 isoform Q08499-2): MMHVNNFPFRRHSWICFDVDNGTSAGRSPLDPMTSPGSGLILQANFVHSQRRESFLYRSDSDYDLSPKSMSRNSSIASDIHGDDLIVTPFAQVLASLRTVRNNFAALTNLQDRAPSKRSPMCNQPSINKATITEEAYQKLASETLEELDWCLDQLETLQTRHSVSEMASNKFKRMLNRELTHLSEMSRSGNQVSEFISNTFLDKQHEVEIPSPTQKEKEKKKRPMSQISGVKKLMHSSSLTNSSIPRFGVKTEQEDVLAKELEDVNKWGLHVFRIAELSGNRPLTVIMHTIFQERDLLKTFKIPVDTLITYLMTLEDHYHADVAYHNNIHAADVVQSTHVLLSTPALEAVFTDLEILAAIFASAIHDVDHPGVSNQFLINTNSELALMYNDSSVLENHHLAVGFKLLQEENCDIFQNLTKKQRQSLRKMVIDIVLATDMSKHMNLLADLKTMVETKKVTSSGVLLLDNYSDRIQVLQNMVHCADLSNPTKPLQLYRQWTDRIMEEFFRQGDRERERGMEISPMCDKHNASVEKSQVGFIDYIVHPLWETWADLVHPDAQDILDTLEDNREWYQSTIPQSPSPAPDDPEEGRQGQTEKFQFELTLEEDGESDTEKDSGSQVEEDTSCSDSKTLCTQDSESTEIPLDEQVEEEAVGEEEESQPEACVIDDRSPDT

[1] = system: PDE4A, PDE4B, PDE4D, PDE7A; experiment: Overall PDE inhibitor profile from the yeast assays (table footnotes, summary); type: cell-based
Outline: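 Fission yeast strains expressing full-length PDEs with an fbp1-ura4 reporter, pregrown in EMM with 0–2.5 mM cAMP (or 0.5 or 1.0 mM cGMP), then grown 48 h at 30° C in 5FOA medium with 100 nl of compound pinned per well (10 mM stocks). Growth read as OD600; composite Z scores calculated.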

Compound: COC(=O)C1=C(C)N(c2ccccc2Cl)C(=O)/C1=C\c1cccs1 [Compound 27]
- 2 Assay (2 uM), PDE 7A (PDE7A): 5.07
- 1 Assay (20 uM), PDE 7A (PDE7A): 2.34
- 2 Assay (2 uM), PDE 4A5 (PDE4A5): 12.63
- 1 Assay (20 uM), PDE 4A5 (PDE4A5): 65.67
- IC50 (PDE4D3): 100 nM
- PDE inhibitor profile in words (table footnote / summary) [1]: (3) Strong PDE4A, 4B inhibitor

Compound: Cc1ccc2c(c1)c1nc3ccccc3nc1n2C(C)C [Compound 41]
- 1 Assay (20 uM), PDE 7A (PDE7A): 0.31
- 1 Assay (20 uM), PDE 4A5 (PDE4A5): 84.08
- IC50 (PDE4D3): 200 nM

Compound: COC(=O)C1=C(C)N(c2ccccc2F)C(=O)/C1=C\c1cccc(OC)c1O [2008, C21]
- 1 Assay (20 uM), PDE 7A (PDE7A): −0.08 ND ND ND ND
- 1 Assay (20 uM), PDE 4A5 (PDE4A5): 1.80 ND ND ND ND
- PDE inhibitor profile in words (table footnote / summary) [1]: (2) Strong PDE4A, 4B inhibitor

Compound: COC(=O)C1=C(C)N(C2CCCCC2)C(=O)/C1=C\c1cccs1 [Compound 22]
- 2 Assay (2 uM), PDE 7A (PDE7A): 57.22
- 1 Assay (20 uM), PDE 7A (PDE7A): 132.82
- 2 Assay (2 uM), PDE 4A5 (PDE4A5): 13.66
- 1 Assay (20 uM), PDE 4A5 (PDE4A5): −0.06
- PDE inhibitor profile in words (table footnote / summary) [1]: (4) Strong PDE4A, 4B, 7 inhibitor; Weak PDE4D inhibitor

Compound: COC(=O)C1=C(C)N(c2ccccc2)/C(=C/c2cccs2)C1=O [2008, K19]
- 1 Assay (20 uM), PDE 7A (PDE7A): 2.43 ND ND ND ND
- 1 Assay (20 uM), PDE 4A5 (PDE4A5): −0.06 ND ND ND ND
- PDE inhibitor profile in words (table footnote / summary) [1]: (1) No activity under conditions used

Compound: COC(=O)C1=C(C)N(c2ccc(C(C)C)cc2)C(=O)/C1=C\c1cccs1 [2008, O19]
- 1 Assay (20 uM), PDE 7A (PDE7A): 2.78 ND ND ND ND
- 1 Assay (20 uM), PDE 4A5 (PDE4A5): 1.73 ND ND ND ND
- PDE inhibitor profile in words (table footnote / summary) [1]: (1) No activity under conditions used
